Columns and labels:
[1] = system: HUVEC; test: Capillary-like tube formation assay; type: cell-based, human; settings: designed concentrations; 6 hours; Matrigel
Method: To elucidate the possible mechanisms of angiogenesis inhibition, tube formation ability of ECs, which is a critical step in the process of angiogenesis, was assessed in HUVEC in vitro.
The anti-angiogenesis ability of YLT192 in vitro was evaluated using capillary tube formation assay as described previously. Briefly, 96-well plate was pre-incubated with Matrigel at 37°C for 45 minutes. Then HUVECs (2 × 10^4 cells) suspended in EGM2 medium were seeded onto the Matrigel. They were treated with various concentrations of YLT192. After 6 hours incubation at 37°C, tube formation was assessed with an OLYMPUS inverted digital camera in low power fields (50×). Vandetanib served as positive control. The assay was replicated 3 times.

[2] = system: HUVEC; test: Transwell invasion assay; type: cell-based, human; settings: various concentrations; 24 hours; concentration-dependent
Description: (§1) Cell migration is essential for ECs in angiogenesis and for cancer cells in tumor growth and metastasis. […] Cell invasion is essential for EC in angiogenesis, so we performed transwell assays to evaluate the ability of HUVEC to pass through the Matrigel and membrane barriers of the transwell in the presence of various concentrations of YLT192 or vehicle.
Figure 2 Effects of YLT192 on HUVECs proliferation, migration, invasion and tube formation. […] Cells were wounded by the pipette and then treated with various concentrations of compounds for 24 hours. Migrated cells were quantified by manual counting (50×). […] The bottom chambers of the transwells were filled with 600 μL EGM2 containing various growth factors while the top chambers were seeded with 4 × 10^4 HUVECs in EBM2 and treated with different concentrations of compounds for 24 hours. Cells invaded through the membrane were stained and quantified (100×). […] HUVECs were seeded on Matrigel layer and treated with different concentrations of compounds. HUVECs tube formation was assessed 6 hours later (50×). One representative experiment of three is shown. […]
(§2) HUVECs were allowed to grow into full confluence in 24-well plates and then wounded by scratching with pipette tips and washed with PBS. […] Images were taken using a ZEISS digital microscope and invading cells were counted by manual counting. […]

[3] = system: HUVEC; test: Wound healing migration assay; type: cell-based, human; settings: various concentrations; 24 hours
Description: as §1
Figure 2 Effects of YLT192 on HUVECs proliferation, migration, invasion and tube formation. […] Cells were wounded by the pipette and then treated with various concentrations of compounds for 24 hours. Migrated cells were quantified by manual counting (50×). […] The bottom chambers of the transwells were filled with 600 μL EGM2 containing various growth factors while the top chambers were seeded with 4 × 10^4 HUVECs in EBM2 and treated with different concentrations of compounds for 24 hours. Cells invaded through the membrane were stained and quantified (100×). […] HUVECs were seeded on Matrigel layer and treated with different concentrations of compounds. HUVECs tube formation was assessed 6 hours later (50×). One representative experiment of three is shown. For (A), (B) and (C), data represent the mean ± SEM of three different experiments. Each experiment was performed in duplicate.*P < 0.05, **P < 0.01. (D) YLT192 inhibited VEGF-induced phosphorylation of VEGFR2 and its downstream signal regulator p44/42 MAPK, STAT3 and AKT in HUVECs. One representative Western blot of three is presented. Each has the expression of β-actin as internal control. The full size blots were shown in the Supplemental Figure S5 online. (E) Cellular thermal shift assay showing VEGFR2 target engagement by YLT192 in intact HUVECs. One representative Western blot of two is presented. The full size blots were shown in the Supplemental Figure S6 online. […]
as §2

[4] = cited from earlier work; for toxicities after single doses: rat, in vivo; for maximal tolerance dose (MTD): rats, ref http://www.accessdata.fda.gov/drugsatfda

Question: Which “tube formation of HUVEC” value [1] does the source give for `COc1cc2c(Nc3ccc(Br)cc3F)ncnc2cc1OCC1CCN(C)CC1` [Vandetanib, reference compound] here?
Answer: Its value is “inhibited HUVECs tube formation”.

Question: And the “invasion of HUVECs in transwell assay” value [2]?
Answer: The value was “inhibted HUVECs invasion”.

Question: What about the “HUVECs migration in wound healing assay” value [3] of the same molecule?
Answer: The value was “inhibited HUVECs migration”.

Question: Which results are given for `CCN(CC)CCNC(=O)c1c(C)[nH]c(/C=C2\C(=O)Nc3ccc(F)cc32)c1C` [sunitinib]?
Answer: toxicities after single doses [4]: toxicities in the gastrointestinal tract and liver; maximal tolerance dose (MTD) [4]: 500 mg/kg

Question: What does the source list for `CNC(=O)c1cc(Oc2ccc(NC(=O)Nc3ccc(Cl)c(C(F)(F)F)c3)cc2)ccn1` [sorafenib]?
Answer: toxicities after single doses [4]: toxicities in the gastrointestinal tract and liver; maximal tolerance dose (MTD) [4]: 500 mg/kg

— article PMC4129416, “YLT192, a Novel, Orally Active Bioavailable Inhibitor of VEGFR2 Signaling with Potent Antiangiogenic Activity and Antitumor Efficacy in Preclinical Models” (Scientific Reports, 2014)
